Compared with `CCCCCC(CCC)=NNC(=N)N`, `CCCC(CCC)=NNC(=N)N` is lower in logP: 2.17 for the first, 1.73 for the second.

First: N=C(N)NN=Cc1ccccc1
Second: CCCCC(C)=NNC(N)=Nc1ccccc1
The logP of the first is lower: 1.18 for the first, 2.05 for the second.

Going from `CC(=NN=C(N)N)c1cccs1` to `NC(N)=N/N=C(\c1ccccc1)c1cccs1`, the logP rises from 1.05 to 1.96.

`CCC/C(=N\NC(N)=Nc1ccccc1)c1ccccc1` and `C/C(=N/N/C(N)=N/c1ccccc1)c1ccccc1` are within 0.2 log units of each other in logP: 2.08 for the first, 2.18 for the second.

Compared with `NC(N)=N/N=C/c1cccs1`, `CCCCCC/C(C)=N\N=C(N)N` is higher in logP: 0.98 for the first, 2.08 for the second.

First: CCCC(CCC)=NNC(N)=Nc1ccccc1
Second: NC(=Nc1ccccc1)NN=Cc1ccc2ccccc2n1
The logP of the first is higher: 2.33 for the first, 0.99 for the second.

Reference: the SangsterLogP compilation
